Experimental data reported in patent US7314729B2, “Methods and kits for transferases” (Promega Corp., priority 2002, dated 2008).
pIC50: −log10 of the molar value.

Assays:
Format in all cases: biochemical
[1] = target: T1, catalytic subunit of cAMP-dependent protein kinase (PKA) (Bos taurus, UniProt P00517); assay: PKA kinase assay with inhibitors (bis-kemptide R110 substrate, Aminopeptidase M, fluorescence); conditions: 0.5 units PKA, 5 μM bis-kemptide, 50 μM ATP; FIG. 2
T1 construct: purchased Promega Corp., Madison, Wis
Protocol: The kinase activity of the catalytic subunit of cAMP-dependent protein kinase (PKA) from Promega Corp., Madison, Wis. was tested in triplicate in a 96-well plates using the following reaction components: 40 mM Tris-HCl, pH 7.5, 20 mM MgCl2, 0.1 mg/ml bovine serum albumin (BSA), 50 μM ATP, and 5 μM of LRRASLG (SEQ. ID. NO: 1)-R110—GLSARRL, a bis-rhodamine peptide kinase substrate also known as “bis-kemptide.” The final reaction volume was 50 uL. […] All kinase reactions were incubated at room temperature for 20 minutes.
The kinase reactions were terminated by adding a termination/detection reagent (25 ul) containing 100 mM EDTA and 25 mU aminopeptidase M (Calbiochem, San Diego, Calif.).
Enzymatic activity of the kinase was measured by taking a reading of the fluorescence, at the time of addition of actinonin and 3 hrs later to test the stability of the signal, with an excitation at 480 nm and fluorescence emission at 520-530 nm.
PKA Assay With Inhibitors. The effects of various inhibitors of PKA kinase were tested.
Fluorescence was detected with an excitation of 480 nm and fluorescence emission at 520-530 nm.

[2] = target: T2, serine/threonine phosphatase PP2A (Homo sapiens, UniProt P67775); assay: PP2A phosphatase assay with inhibitors (bis-STP-R110 phosphopeptide, Aminopeptidase M)
T2 construct: purchased Promega (Madison, Wis.)
Protocol: PP2A activity with STP-R-110. The phosphatase activity of phosphatase 2A (PP2A) was carried out in 50 ul volume containing 5 uM of phosphopeptide substrate bis-STP-R110 (RRAT(PO3)VA (SEQ. ID. NO:5)-R110-[…]), 40 mM Tris-HCl, pH 7.5, and 0.1 mg/ml BSA. Phosphatase reactions were initiated by adding the enzyme serine/threonine phosphatase PP2A from Promega (Madison, Wis.). The amount of PP2A added to each reaction was titrated in ½ increments, in a range from 0.0075 ng (0.015 munits) to 7.5 nanograms (15 munits), plus control reactions containing no enzyme. Phosphatase reactions were carried out for 10 minutes at room temperature in 96-well plates.
Phosphatase reactions were terminated with 25 ul of 2 uM okadaic acid ((9,10-Deepithio-9,10-didehydroacanthifolicin) (sodium salt)), a known inhibitor of PP2A. After termination, 25 mU/well of Aminopeptidase M was added in 40 mM Tris buffer, pH 7.5, 0.1 mg/ml BSA. The aminopeptidase reaction was incubated at room temperature, 25° C., for 90 minutes. Fluorescence was read as in Example 1.

[3] = target: T3, tyrosine phosphatase PTP-1B (Homo sapiens, UniProt P18031); assay: PTP-1B phosphatase assay with inhibitors (bis-PTK5p-R110 phosphopeptide, Aminopeptidase M); conditions: 25 mU/well PTP-1B, inhibitor zero up to 50 uM; FIG. 10
T3 sequence (P18031 1-435): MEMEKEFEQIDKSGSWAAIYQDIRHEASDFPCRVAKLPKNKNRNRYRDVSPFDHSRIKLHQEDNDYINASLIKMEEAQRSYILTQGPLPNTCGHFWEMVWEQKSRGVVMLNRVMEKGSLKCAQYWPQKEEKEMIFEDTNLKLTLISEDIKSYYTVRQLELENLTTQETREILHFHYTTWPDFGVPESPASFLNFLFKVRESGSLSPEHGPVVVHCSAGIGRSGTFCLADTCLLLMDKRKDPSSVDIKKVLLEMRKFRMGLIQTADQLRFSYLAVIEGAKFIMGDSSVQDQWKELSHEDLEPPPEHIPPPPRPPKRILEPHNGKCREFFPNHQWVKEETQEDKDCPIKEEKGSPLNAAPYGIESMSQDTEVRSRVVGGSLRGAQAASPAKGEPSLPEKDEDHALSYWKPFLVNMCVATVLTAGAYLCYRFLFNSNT
Protocol: The effect of various inhibitors were tested on the dephosphorylation of bis-PTK5p-R110 by the enzyme tyrosine phosphatase PTP-1B. […] Inhibitors were included in the reactions at concentrations ranging from zero inhibitor up to 50 uM. Phosphatase reactions were initiated by adding PTB-1B, which was added to each reaction at 25 mU/well. Control reactions containing no enzyme were also run.
Phosphatase reactions were terminated with 25 ul of a solution of Na3VO4 and 25 mU/well of Aminopeptidase M. Reactions were incubated at room temperature for 60 minutes.

T2 sequence (P67775 whole entry): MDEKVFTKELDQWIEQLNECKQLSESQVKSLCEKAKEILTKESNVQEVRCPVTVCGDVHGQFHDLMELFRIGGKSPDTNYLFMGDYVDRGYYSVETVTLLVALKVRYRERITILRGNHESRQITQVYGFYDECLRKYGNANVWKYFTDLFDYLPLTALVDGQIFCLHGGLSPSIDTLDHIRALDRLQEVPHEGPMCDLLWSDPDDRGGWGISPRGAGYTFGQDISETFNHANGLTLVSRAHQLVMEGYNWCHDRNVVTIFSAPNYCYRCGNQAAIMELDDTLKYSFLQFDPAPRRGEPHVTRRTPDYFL

| Compound | effect on kinase activity of PKA (fluorescence output with increasing inhibitor concentration) [1] | inhibition of dephosphorylation of bis-PTK5p-R110 by PTP-1B [3] | other results |
| --- | --- | --- | --- |
| CC1CNCCN1S(=O)(=O)c1cccc2cnccc12 (stereo not drawn) [H7, 1-(5-isoquinolinesulfonyl)-2-methylpiperzine] | without effect |  |  |
| N#CC(=C(N)Sc1ccccc1N)C(C#N)=C(N)Sc1ccccc1N [U0126, 1,4-diamino-2,3-dicyano-1,4-bis-(2-aminophenylthio)butadiene] | without effect |  |  |
| C=C1[C@@H](O)[C@@H]2O[C@]3(CC[C@H](/C=C/[C@@H](C)[C@@H]4CC(C)=C[C@@]5(O[C@H](C[C@@](C)(O)C(=O)O)CC[C@H]5O)O4)O3)CC[C@H]2O[C@@H]1[C@@H](O)C[C@H](C)[C@H]1O[C@@]2(CCCCO2)CC[C@H]1C [okadaic acid, 9,10-Deepithio-9,10-didehydroacanthifolicin] |  |  | pIC50 [2]: > 9.00; inhibition of dephosphorylation of the substrate by PP2A ([2]; 2 nanograms PP2A (4 munits), 5 uM phosphopeptide substrate, inhibitor zero up to 100 nM, FIG. 7): inhibited |
| CN[C@@H]1C[C@H]2O[C@@](C)([C@@H]1OC)n1c3ccccc3c3c4c(c5c6ccccc6n2c5c31)C(=O)NC4 [staurosporin, (9S-(9α,10,11β,13α)-2,3,10,11,12,13-Hexahydro-10-methoxy-9-methyl-[1-(methylamino)-epoxy-1H,9H-diindolo[1,2,3-gh:3′,2′,1′-1m]pyrrolo{3,4-j]][1,7]benzodiazonin-1-one)] |  | had no effect |  |
| Sodium vanadate [Na3VO4] |  | inhibition of PTP 1B enzyme activity |  |
